Reference: patent publication US20150105252A1, “SUBSTITUTED PYRAZOLES AS HERBICIDES” (E I DU PONT DE NEMOURS AND COMPANY, priority 2013, published 2015)

Experiments:
[1] = system: barnyardgrass; assay: Test A preemergence; type: in vivo, Echinochloa crus-galli; conditions: Preemergence, 1000 g ai/ha; 0 to 100 scale, 0 no effect, 100 complete control
Summary of the method: (§1)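 Seeds were sown in a loam soil–sand blend and given a directed soil spray preemergence; postemergence plants at 2–10 cm, one- to two-leaf stage, were sprayed with compound in non-phytotoxic solvent with surfactant. After about 10 days in a greenhouse, injury was visually rated against untreated controls (0 = no effect, 100 = complete control).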

[2] = system: pigweed; assay: Test A preemergence; type: in vivo, Amaranthus retroflexus; conditions: Preemergence, 1000 g ai/ha; 0 to 100 scale, 0 no effect, 100 complete control
Summary of the method: as §1

[3] = system: velvetleaf; assay: Test A preemergence; type: in vivo, Abutilon theophrasti; conditions: Preemergence, 1000 g ai/ha; 0 to 100 scale, 0 no effect, 100 complete control
Summary of the method: as §1

[4] = system: pigweed; assay: Test A postemergence; type: in vivo, Amaranthus retroflexus; conditions: Postemergence, 1000 g ai/ha; visual rating after approx. 10 days, 0 to 100 scale (0 no effect, 100 complete control)
Summary of the method: as §1

[5] = system: velvetleaf; assay: Test A postemergence; type: in vivo, Abutilon theophrasti; conditions: Postemergence, 1000 g ai/ha; visual rating after approx. 10 days, 0 to 100 scale (0 no effect, 100 complete control)
Summary of the method: as §1

[6] = system: blackgrass; assay: Test C preemergence; type: in vivo, Alopecurus myosuroides
Description: (§2) Seeds of plant species selected from blackgrass (Alopecurus myosuroides), ryegrass, Italian (Italian ryegrass, Lolium multiflorum), wheat (winter wheat, Triticum aestivum), galium (catchweed bedstraw, Galium aparine), corn (Zea mays), crabgrass, large (large crabgrass, Digitaria sanguinalis), foxtail, giant (giant foxtail, Setaria faberii), johnsongrass (Sorghum halepense), lambsquarters (Chenopodium album), morningglory (Ipomoea coccinea), nutsedge, yellow (yellow nutsedge, Cyperus esculentus), pigweed (redroot pigweed, Amaranthus retroflexus), ragweed (common ragweed, Ambrosia elation), soybean (Glycine max), barnyardgrass (Echinochloa crus-galli), oilseed rape (Brassica napus), waterhemp (common waterhemp, Amaranthus rudis), oat, wild (wild oat, Avena fatua), kochia (Kochia scoparia), Surinam grass (Brachiaria decumbens), foxtail, green (green foxtail, Setaria viridis), goosegrass (Eleusine indica), bromegrass, downy (downy bromegrass, Bromus tectorum), nightshade (eastern black nightshade, Solanum ptycanthum), cocklebur (common cocklebur, Xanthium strumarium), cupgrass, woolly (woolly cupgrass, Eriochloa villosa), bermudagrass (Cynodon dactylon), sunflower, (common oilseed sunflower, Helianthus annuus), Russian thistle (Salsola kali), and velvetleaf (Abutilon theophrasti) were planted into a blend of loam soil and sand and treated preemergence with test chemicals formulated in a non-phytotoxic solvent mixture which included a surfactant.
(§3) At the same time, plants selected from these crop and weed species and also chickweed (common chickweed, Stellaria media), canarygrass (littleseed canarygrass, Phalaris minor), and deadnettle (henbit deadnettle, Lamium amplexicaule), were planted in pots containing Redi-Earth® planting medium (Scotts Company, 14111 Scottslawn Road, Marysville, Ohio 43041) comprising spaghnum peat moss, vermiculite, wetting agent and starter nutrients and treated with postemergence applications of test chemicals formulated in the same manner. Plants ranged in height from 2 to 18 cm (1- to 4-leaf stage) for postemergence treatments. Treated plants and controls were maintained in a greenhouse for 13 to 15 days, after which time all species were compared to controls and visually evaluated. Plant response ratings, summarized in Table C, are based on a scale of 0 to 100 where 0 is no effect and 100 is complete control. A dash (-) response means no test result.

[7] = system: wheat; assay: Test C preemergence; type: in vivo, Triticum aestivum
Description: as §2, §3

[8] = system: foxtail, giant; assay: Test C preemergence; type: in vivo, Setaria faberii
Description: as §2, §3

[9] = system: johnsongrass; assay: Test C preemergence; type: in vivo, Sorghum halepense
Description: as §2, §3

[10] = system: ragweed; assay: Test C preemergence; type: in vivo, Ambrosia elation
Description: as §2, §3

[11] = system: soybean; assay: Test C preemergence; type: in vivo, Glycine max
Description: as §2, §3

[12] = system: corn; assay: Test C postemergence; type: in vivo, Zea mays; conditions: for Corn plant response rating: scale 0 to 100
Description: as §2, §3

[13] = system: johnsongrass; assay: Test C postemergence; type: in vivo, Sorghum halepense; conditions: for Johnsongrass plant response rating: scale 0 to 100
Description: as §2, §3

[14] = system: lambsquarters; assay: Test C postemergence; type: in vivo, Chenopodium album; conditions: for Lambsquarters plant response rating: scale 0 to 100
Description: as §2, §3

[15] = preemergence, 31 g ai/ha, scale 0 to 100 (0 no effect, 100 complete control), 13 to 15 days
[16] = preemergence, 62 g ai/ha, 13 to 15 days, scale 0 to 100, 0 = no effect, 100 = complete control
[17] = preemergence, 125 g ai/ha, scale 0 to 100, 0 is no effect, 100 is complete control
[18] = postemergence, 250 g ai/ha, scale 0 to 100 (0 no effect, 100 complete control)
[19] = postemergence, 125 g ai/ha, scale 0 to 100, 0 no effect, 100 complete control
[20] = postemergence, 62 g ai/ha, scale 0 to 100, 0 no effect, 100 complete control

SMILES: Cc1cc(C(=O)NCC(F)(F)F)nn1Cc1ccnc(C(F)(F)F)c1 [Compound 74]
- Barnyardgrass plant response rating [1]: 100
- Pigweed plant response rating [2]: 100
- Velvetleaf plant response rating [3]: 100
- Pigweed plant response rating [4]: 100
- Velvetleaf plant response rating [5]: 100
- Plant response rating (scale of 0 to 100), Blackgrass ([6]; Preemergence, 250 g ai/ha): 90
- Blackgrass plant response rating [6, 15]: 10
- Plant response rating, Blackgrass [6, 16]: 85
- Blackgrass plant response rating [6, 17]: 90
- Plant response rating (scale of 0 to 100), Wheat ([7]; Preemergence, 250 g ai/ha): 90
- Wheat plant response rating [7, 15]: 0
- Plant response rating, Wheat [7, 16]: 5
- Wheat plant response rating [7, 17]: 15
- Plant response rating (scale of 0 to 100), Foxtail, Giant ([8]; Preemergence, 250 g ai/ha): 100
- Foxtail, Giant plant response rating [8, 15]: 80
- Plant response rating, Foxtail, Giant [8, 16]: 100
- Foxtail, Giant plant response rating [8, 17]: 100
- Plant response rating (scale of 0 to 100), Johnsongrass ([9]; Preemergence, 250 g ai/ha): 100
- Johnsongrass plant response rating [9, 15]: 10
- Plant response rating, Johnsongrass [9, 16]: 25
- Johnsongrass plant response rating [9, 17]: 98
- Plant response rating (scale of 0 to 100), Ragweed ([10]; Preemergence, 250 g ai/ha): 90
- Ragweed plant response rating [10, 15]: 30
- Plant response rating, Ragweed [10, 16]: 60
- Ragweed plant response rating [10, 17]: 80
- Plant response rating (scale of 0 to 100), Soybean ([11]; Preemergence, 250 g ai/ha): 98
- Soybean plant response rating [11, 15]: 25
- Plant response rating, Soybean [11, 16]: 55
- Soybean plant response rating [11, 17]: 85
- Corn plant response rating ([12]; Postemergence, 31 g ai/ha): 10
- Corn plant response rating ([12]; postemergence, 62 g ai/ha): 10
- Plant response rating, Corn [12, 18]: 55
- Plant response rating, Corn [12, 19]: 20
- Johnsongrass plant response rating ([13]; Postemergence, 31 g ai/ha): 0
- Johnsongrass plant response rating ([13]; postemergence, 62 g ai/ha): 0
- Plant response rating, Johnsongrass [13, 18]: 15
- Plant response rating, Johnsongrass [13, 19]: 5
- Lambsquarters plant response rating ([14]; Postemergence, 31 g ai/ha): 20
- Lambsquarters plant response rating ([14]; postemergence, 62 g ai/ha): 35
- Plant response rating, Lambsquarters [14, 18]: 90
- Plant response rating, Lambsquarters [14, 19]: 80

SMILES: CCCNC(=O)c1cc(CC)n(Cc2cccc(OC(F)(F)F)c2)n1 [Compound 27]
- Barnyardgrass plant response rating [1]: 50
- Pigweed plant response rating [2]: 90
- Velvetleaf plant response rating [3]: 30
- Pigweed plant response rating [4]: 70
- Velvetleaf plant response rating [5]: 100
- Corn plant response rating ([12]; Postemergence, 31 g ai/ha): 10
- Plant response rating, Corn [12, 18]: 15
- Plant response rating, Corn [12, 20]: 10
- Plant response rating, Corn [12, 19]: 15
- Johnsongrass plant response rating ([13]; Postemergence, 31 g ai/ha): 0
- Plant response rating, Johnsongrass [13, 18]: 5
- Plant response rating, Johnsongrass [13, 20]: 0
- Plant response rating, Johnsongrass [13, 19]: 5
- Lambsquarters plant response rating ([14]; Postemergence, 31 g ai/ha): 50
- Plant response rating, Lambsquarters [14, 18]: 65
- Plant response rating, Lambsquarters [14, 20]: 50
- Plant response rating, Lambsquarters [14, 19]: 50
